Molecular target: T1, horseradish peroxidase (HRP) (Armoracia rusticana, UniProt P00433)
T1 construct: gene PRXC1A
T1 sequence (P00433 31-338): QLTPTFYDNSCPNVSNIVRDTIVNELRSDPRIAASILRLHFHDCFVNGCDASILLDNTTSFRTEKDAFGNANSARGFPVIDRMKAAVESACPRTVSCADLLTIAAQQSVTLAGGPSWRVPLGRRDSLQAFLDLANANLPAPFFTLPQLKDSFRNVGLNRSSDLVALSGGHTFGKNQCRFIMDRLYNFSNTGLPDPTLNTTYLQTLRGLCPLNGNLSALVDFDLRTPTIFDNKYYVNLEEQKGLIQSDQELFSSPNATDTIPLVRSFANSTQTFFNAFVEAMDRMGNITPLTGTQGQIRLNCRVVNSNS
Assay: fluorescence plate reader ([…] nm), Michaelis-Menten fit
Assay type: biochemical
Conditions: free HRP added to degraded Fe-fum NPs (citrate buffer); 2500 μM H2O2; Amplex UltraRed 0-100 μM

- Km: 182 ± 73 µM
Substance: Amplex UltraRed
